Test results: PubChem BioAssay (NCI)
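Protocol summary: plate cells (96-well), add compound at 5 concentrations, incubate 48 h, interpolate endpoints linearly. GI50 is the concentration that inhibits growth by half. TGI denotes the concentration required for complete inhibition of growth.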

Key:
Experiment in all cases: inhibition of tumour cell growth, NCI panel, 48 h
SF-295 CNS = test system: SF-295 CNS
HCT-116 colon = test system: HCT-116 colon
SK-MEL-5 melanoma = test system: SK-MEL-5 melanoma
OVCAR-5 ovarian = test system: OVCAR-5 ovarian
SK-OV-3 ovarian = test system: SK-OV-3 ovarian
TK-10 renal = test system: TK-10 renal
RXF 393 renal = test system: RXF 393 renal
CCRF-CEM leukemia = test system: CCRF-CEM leukemia
RPMI-8226 leukemia = test system: RPMI-8226 leukemia
NCI/ADR-RES ovarian = test system: NCI/ADR-RES ovarian

Structure (SMILES)	TGI (SF-295 CNS) [µM]	TGI (HCT-116 colon) [µM]	TGI (SK-MEL-5 melanoma) [µM]	TGI (OVCAR-5 ovarian) [µM]	TGI (SK-OV-3 ovarian) [µM]	TGI (TK-10 renal) [µM]	TGI (RXF 393 renal) [µM]	TGI (CCRF-CEM leukemia) [µM]	TGI (RPMI-8226 leukemia) [µM]	GI50 (SF-295 CNS) [µM]	GI50 (HCT-116 colon) [µM]	GI50 (SK-MEL-5 melanoma) [µM]	GI50 (OVCAR-5 ovarian) [µM]	GI50 (SK-OV-3 ovarian) [µM]	GI50 (RXF 393 renal) [µM]	GI50 (NCI/ADR-RES ovarian) [µM]	TGI (NCI/ADR-RES ovarian) [µM]	GI50 (CCRF-CEM leukemia) [µM]	GI50 (RPMI-8226 leukemia) [µM]	GI50 (TK-10 renal) [µM]
Clc1ccc(-c2c(C3=NCCN3)nnn2-c2ccccc2)cc1	> 100	> 100	> 100	> 100	> 100	> 100	> 100	> 100	> 100	–	–	–	–	–	–	–	–	–	–	–
COc1cc(C2c3cc4c(cc3[C@@H](N(C)C)[C@H]3COC(=O)C23)OCO4)cc(OC)c1O (stereo partly specified)	–	> 100	86.5	> 100	> 100	> 100	> 100	> 100	> 100	–	–	–	–	–	–	–	–	–	–	–
COc1ccccc1NC(=O)C1=C(C)NC(C)=C(C(=O)Nc2ccccc2OC)C1c1ccc(N(C)C)cc1	> 100	74.7	96.7	> 100	84.5	> 100	68.6	52.4	55.4	–	–	–	–	–	–	–	–	–	–	–
COC(=O)c1ccc(C(=O)OC)c2nc3cc(C)ccc3nc12	> 100	–	> 100	> 100	> 100	> 100	–	> 100	> 100	–	–	–	–	–	–	–	–	–	–	–
CN1C(=O)C2C=CC1C1CCC2N(C)C1=O (stereo unspecified)	> 100	> 100	> 100	> 100	> 100	> 100	> 100	> 100	> 100	–	–	–	–	–	–	–	–	–	–	–
CC(/C=C/NNC1=NC(c2ccccc2)C(c2ccccc2)=NN1)Sc1ccccc1N (stereo unspecified)	22.4	21.8	23.6	31.3	31	27.2	–	–	> 100	–	–	–	–	–	–	–	–	–	–	–
NC(=O)c1csc(C2CCC(CO)O2)n1 (stereo unspecified)	> 100	> 100	–	> 100	> 100	> 100	–	> 100	> 100	–	–	–	–	–	–	–	–	–	–	–
S=P(N1CCCC1)(N1CC1)N1CC1	> 100	> 100	> 100	> 100	> 100	> 100	> 100	> 100	> 100	–	–	–	–	–	–	–	–	–	–	–
CNCCNc1nc2ccccc2c2c(=O)c3cc(F)ccc3sc12	3.4	2.81	3.34	3.21	7.58	–	3.1	3.36	4.03	1.82	1.49	1.82	1.65	2.13	1.6	1.82	3.83	1.68	1.91	–
CN1c2ccccc2S(=O)(=O)n2c(CCc3ccccc3)nnc21	> 100	> 100	> 100	> 100	> 100	> 100	> 100	> 100	–	–	–	–	–	–	–	–	> 100	–	–	–
Cc1cccc(N=C2NC(=O)C(CC(=O)Nc3ccc(C)cc3C)S2)c1 (stereo unspecified)	> 100	> 100	> 100	> 100	–	> 100	> 100	> 100	> 100	–	–	–	–	–	–	–	–	–	–	–
COc1cc(/C=C2\CC3C4CC=C5C[C@@H](O)CC[C@]5(C)C4CC[C@]3(C)C2=O)ccc1OCCCn1ccnc1 (stereo partly specified)	27.5	33.4	27	41.9	> 100	35.9	34.8	34.8	–	13.4	16.1	14.1	20.2	29.1	12.6	15.4	31.7	18	–	20.4
O=c1cc(-c2ccccn2)[nH]c2cc(F)ccc12	> 100	> 100	> 100	> 100	> 100	> 100	> 100	–	> 100	–	–	–	–	–	–	–	–	–	–	–
CC1(O)CCC2(C)C(=O)C1(C)CCC21OCCO1 (stereo unspecified)	> 100	–	> 100	> 100	> 100	> 100	> 100	> 100	> 100	–	–	–	–	–	–	–	–	–	–	–
COC(=O)[C@H]1N[C@@H](C(=O)OC)C23CCC[C@H]2CC[C@]1(C(OC)OC)C3	> 100	> 100	> 100	> 100	> 100	> 100	–	> 100	> 100	–	–	–	–	–	–	–	–	–	–	–
Cc1c(C(=O)CC(=O)C(=O)Nc2cc(Cl)ccc2Cl)[n+](=O)c2ccccc2n1[O-]	> 100	> 100	> 100	> 100	> 100	> 100	> 100	> 100	57.8	–	–	–	–	–	–	–	–	–	–	–
C[C@]12CC[C@@H](OC(=O)N(CCCl)N=O)C[C@@H]1CC[C@@H]1[C@@H]2CC[C@]2(C)C(=O)CC[C@@H]12	> 51.1	30.5	19.5	57.7	14.3	33.1	–	> 100	> 50.8	0.308	7.25	3.93	27.2	3.43	–	4.88	30.2	14.2	14.8	12
CC1=NOC(=O)C1N=Nc1ccc(Br)c(C)c1 (stereo unspecified)	66.4	33.9	25.4	72	97.8	33.2	43.1	34.3	40.7	–	–	–	–	–	–	–	–	–	–	–
Nc1ccc(C(=O)CC2(O)C(=O)Nc3c(Cl)cc(Cl)cc32)cc1 (stereo unspecified)	> 100	> 100	–	> 100	> 100	> 100	> 100	> 100	> 100	–	–	–	–	–	–	–	–	–	–	–
COC(=O)C(CC(=O)c1c[nH]c2ccccc12)c1c[nH]c2ccccc12 (stereo unspecified)	> 10	31.6	32.2	42.1	69.9	76.9	28	73.7	44.8	–	–	–	–	–	–	–	–	–	–	–
CC[C@H](Nc1nc(N)nc(C2CC2)c1C#N)c1nc2cccc(NCc3ccc(C(=O)NO)cc3)c2c(=O)n1-c1ccccc1	–	2.71	–	5.08	4.38	30.3	1.99	> 100	9.03	–	1.25	–	1.92	1.9	0.582	3.31	15.6	0.734	2.52	2.75
